According to patent US20240366644A1, “ANTI-INFLAMMATORY APPLICATION OF GINSENOSIDE RD” (priority 2022, published 2024):

Experiments:
[1] = system: Chronic Obstructive Pulmonary Disease in Rats; experiment: Lung pathomorphology of rats with chronic obstructive pulmonary disease; assay type: in vivo, SD rats
[2] = system: Chronic Obstructive Pulmonary Disease in Rats; experiment: Serum TNF-α and IL-8 in rats with chronic obstructive pulmonary disease (LPS + smoking); assay type: in vivo, SD rats
Method: After adaptive feeding (20-25° C., a humidity of 50-60%) for 1 week, the rats were randomly divided into a blank group, a model group, a positive control group, a ginsenoside Rd high-dose group, and a ginsenoside Rd low-dose group, with ten rats in each group.
Model group: on the Day 1 and Day 14, each rat was intraperitoneally injected with 10% chloral hydrate (300 mg/kg) for anesthesia; the head was fixed in a low position; the glottis was exposed; lipopolysaccharide was quickly injected into the trachea; and the rat was kept upright, and swung left and right for 10-20 s, such that the lipopolysaccharide was evenly distributed in the two lungs. On the Days 2-13, and 15-28, the lungs were smoked in a closed organic glass box for 30 min every day, with 15 cigarettes per day.
Positive control group: the animal was anesthetized, and intratracheally injected with lipopolysaccharide, wherein smoking conditions and time were the same as those of the model group; and after tracheal injection of lipopolysaccharide for two weeks, the animal was administrated with Simvastatin by gavage (2.5 mg/kg), and killed after six weeks, and serum was collected.
In accordance with the instructions, the levels of TNF-α and IL-8 in the serum were detected by enzyme-linked immunosorbent assay. The data was expressed as x±s, p<0.05, which meant that it was statistically significant.

[3] = system: COVID-19 Delta virus-infected mice; experiment: IL-1β and MCP-1 expression (RT-qPCR) in lung homogenates of COVID-19 Delta virus-infected mice; assay type: in vivo, hACE2 transgenic C57BL/6 mice; conditions: for IL-1β expression level in lung homogenate / MCP-1 expression level in lung homogenate: mRNA, blank group 1.00, Day 5 of infection
[4] = system: mice infected with COVID-19 Delta virus; experiment: Lung histopathology of mice infected with COVID-19 Delta virus; assay type: in vivo, hACE2 transgenic C57BL/6 mice; conditions: for Interstitial pneumonia Mild / Interstitial pneumonia Moderate / Interstitial pneumonia Severe / Pulmonary hemorrhage Mild / Pulmonary hemorrhage Moderate / Pulmonary hemorrhage Severe: number of mice with this degree (four per group), five days
[5] = system: mice with acute lung injury; experiment: Inflammatory factors (ELISA) in lung tissue and alveolar lavage fluid of mice with LPS acute lung injury; assay type: in vivo, Balb/c mice; conditions: for IL-1β in alveolar lavage fluid / IL-1β in lung tissue / IL-6 in alveolar lavage fluid / IL-6 in lung tissue / IL-18 in alveolar lavage fluid / IL-18 in lung tissue / TNF-α in alveolar lavage fluid / TNF-α in lung tissue: 24 h after modeling
Method: Balb/c male mice, weighing 20-22 g, were randomly divided into five groups according to body weights, with eight mice in each group: a blank control group (propylene glycol-0.5% carboxymethylcellulose sodium), a model group (LPS, 15 mg/kg), a ginsenoside Rd low-dose group (10 mg/kg), a ginsenoside Rd high-dose group (20 mg/kg), and a Dexamethasone group (5 mg/kg). Mice in each group were intraperitoneally injected; after 1 h of administration, except for the blank control group, the mice in each group were intratracheally instilled with 20 μg of LPS for modeling; and the blank control group was intratracheally instilled with an equal volume of PBS.
After 1 h of administration, a mouse ALI model was established; each mouse was intraperitoneally injected with sodium pentobarbital at 30 mg/kg, anesthetized and fixed on an operating table dorsally; skin preparation was carried out on the neck; the skin was incised to expose the trachea; 20 μg of LPS was instilled into the trachea using a microglass syringe; and then the mouse was gently rotated head up on the operating table, such that the instilled liquid was evenly distributed in the mouse lungs, and the skin incision was sutured.
After 24 h of modeling, anesthetized mice were intraperitoneally injected with sodium pentobarbital at 30 mg/kg; lung tissues of the mice were taken and rinsed repeatedly in pre-cooled normal saline; the lung tissues were blood-removed, wiped with filter paper, weighed, and added with normal saline according to a ratio of 1:9 (W:V=1 g:9 ml); a tissue homogenate was prepared with a homogenization machine under an ice water bath; and a supernatant of mouse lung tissue homogenate was taken.
The mouse was anesthetized, and the trachea was separated; the whole lung was lavaged with 0.5 ml of pre-cooled normal saline, stayed for 1 min, and slowly pumped back with a syringe, and this process was repeated three times; and BLAF was collected, and centrifuged for 15 min at 4° C. and 1600 rpm/min.
In strict accordance with the operating instructions of an enzyme-linked immunosorbent assay kit (ELISA), the contents of TNF-α, IL-1β, IL-6 and IL-18 in the supernatant of mouse lung tissue homogenate and the BLAF supernatant were detected.

[6] = high-dose 20 mg/kg gavage once a day
[7] = low-dose 10 mg/kg gavage once a day
[8] = 10 mg/kg intraperitoneal 1 h before LPS
[9] = 20 mg/kg intraperitoneal 1 h before LPS

## CC(C)=CCC[C@](C)(O[C@@H]1O[C@H](CO)[C@@H](O)[C@H](O)[C@H]1O)[C@H]1CC[C@]2(C)[C@@H]1[C@H](O)C[C@@H]1[C@@]3(C)CC[C@H](O[C@@H]4O[C@H](CO)[C@@H](O)[C@H](O)[C@H]4O[C@@H]4O[C@H](CO)[C@@H](O)[C@H](O)[C@H]4O)C(C)(C)[C@@H]3CC[C@]12C [Ginsenoside Rd, ginsenoside Rd]
[1]; 5 mg/kg
  Epithelial cell necrosis Mild: 6
  Epithelial cell necrosis Moderate: 4
  Epithelial cell necrosis Severe: 0
  Interstitial inflammatory cell infiltration Mild: 6
  Interstitial inflammatory cell infiltration Moderate: 4
  Interstitial inflammatory cell infiltration Severe: 0
[1]; 10 mg/kg
  Epithelial cell necrosis Mild: 7
  Epithelial cell necrosis Moderate: 3
  Epithelial cell necrosis Severe: 0
  Interstitial inflammatory cell infiltration Mild: 7
  Interstitial inflammatory cell infiltration Moderate: 3
  Interstitial inflammatory cell infiltration Severe: 0
[1]; 10 mg/kg and 5 mg/kg, compared with the model group
  lung lesions: good improvement effects on lung lesions
[1]; high-dose group 10 mg/kg
  effect on lung lesions compared with the Simvastatin group: considerable to the Simvastatin group
[2]; high-dose 10 mg/kg
  IL-8 in serum: 24.88 ± 14.67
  TNF-α in serum: 12.13 ± 17.06
[2]; high-dose group
  efficacy on serum inflammatory factors compared with Simvastatin: considerable to that of Simvastatin
[2]; low-dose 5 mg/kg
  IL-8 in serum: 30.97 ± 13.70
  TNF-α in serum: 12.92 ± 10.20
[3]; compared with the virus model group
  IL-1β and MCP-1 inflammatory factors: significantly reduced
[3]; 10 mg/kg gavage
  IL-1β expression level in lung homogenate: 20.88 ± 6.42
  MCP-1 expression level in lung homogenate: 18.71 ± 13.75
[3]; 20 mg/kg gavage
  IL-1β expression level in lung homogenate: 10.13 ± 6.68
  MCP-1 expression level in lung homogenate: 7.15 ± 9.36
[4]; 10 mg/kg and 20 mg/kg, compared with virus group
  lung lesions caused by COVID-19 Delta virus: good improvement effects on lung lesions
[4]; high-dose group 20 mg/kg
  pathological improvement of pulmonary hemorrhage and interstitial pneumonia compared with Dexamethasone: better than Dexamethasone
[4]; [6]
  Interstitial pneumonia Mild: 4
  Interstitial pneumonia Moderate: 0
  Interstitial pneumonia Severe: 0
  Pulmonary hemorrhage Mild: 4
  Pulmonary hemorrhage Moderate: 0
  Pulmonary hemorrhage Severe: 0
[4]; [7]
  Interstitial pneumonia Mild: 2
  Interstitial pneumonia Moderate: 2
  Interstitial pneumonia Severe: 0
  Pulmonary hemorrhage Mild: 2
  Pulmonary hemorrhage Moderate: 2
  Pulmonary hemorrhage Severe: 0
[5]; [8]
  IL-1β in alveolar lavage fluid: 79.63 ± 21.33 ng/L
  IL-1β in lung tissue: 80.23 ± 18.08 ng/L
  IL-6 in alveolar lavage fluid: 39.37 ± 9.12 ng/L
  IL-6 in lung tissue: 84.70 ± 10.84 ng/L
  IL-18 in alveolar lavage fluid: 81.20 ± 21.27 ng/L
  IL-18 in lung tissue: 94.03 ± 15.22 ng/L
  TNF-α in alveolar lavage fluid: 344.09 ± 61.08 ng/L
  TNF-α in lung tissue: 98.14 ± 14.48 ng/L
[5]; [9]
  IL-1β in alveolar lavage fluid: 49.51 ± 6.89 ng/L
  IL-1β in lung tissue: 30.52 ± 13.42 ng/L
  IL-6 in alveolar lavage fluid: 29.53 ± 8.99 ng/L
  IL-6 in lung tissue: 36.81 ± 13.45 ng/L
  IL-18 in alveolar lavage fluid: 44.64 ± 17.91 ng/L
  IL-18 in lung tissue: 37.54 ± 15.80 ng/L
  TNF-α in alveolar lavage fluid: 186.04 ± 75.00 ng/L
  TNF-α in lung tissue: 46.88 ± 19.52 ng/L
[5]; compared with the model group
  contents of TNF-α, IL-1β, IL-6 and IL-18 in the lung tissues and BLAF: significantly reduce
[5]; high-dose group 20 mg/kg, P<0.01
  effect on TNF-α, IL-1β, IL-6 and IL-18 contents compared with Dexamethasone: better than that of Dexamethasone
